Measurements reported in ChEMBL document CHEMBL5506053, “Explorations of Agonist Selectivity for the α9* nAChR with Novel Substituted Carbamoyl/Amido/Heteroaryl Dialkylpiperazinium Salts and Their Therapeutic Implications in Pain and Inflammation” (J Med Chem, 2024).
The source made the active and inactive calls. The rule behind the calls is not given here.

Experiments:
[1] = test system: Oocyte; experiment: Inhibition of acetylcholine induced response in mouse muscle alpha1beta1epsilondelta nAChR expressed in xenopus laevis oocytes assessed as fold change at 30 uM preincubated with 3 uM acetylcholine followed by compound administration for 12 sec and measured 181 sec post washout by two-electrode voltage-clamp electrophysiology method relative to acetylcholine alone; type: cell-based
[2] = molecular target: T1, Neuronal acetylcholine receptor; alpha4/beta2 (Homo sapiens) (UniProt P17787+P43681); experiment: Inhibition of acetylcholine induced response in human alpha4beta2 nAChR expressed in xenopus laevis oocytes assessed as fold change at 30 uM preincubated with 3 uM acetylcholine followed by compound administration for 12 sec and measured 181 sec post washout by two-electrode voltage-clamp electrophysiology method relative to acetylcholine alone; type: cell-based; details: Oocyte
[3] = molecular target: T2, Neuronal acetylcholine receptor; alpha9/alpha10 (Homo sapiens) (UniProt Q9UGM1+Q9GZZ6); experiment: Partial agonist activity at human alpha9alpha10 nAChR expressed as xenopus laevis oocytes assessed as increase in receptor desensitization by measuring fold change in maximum response (Imax) measured after 120 secs by two-electrode voltage-clamp electrophysiology method relative to acetylcholine; type: cell-based; details: Oocyte, filed as partial agonist, time 120.0 sec
[4] = molecular target: T3, Neuronal acetylcholine receptor; alpha3/beta4 (Homo sapiens) (UniProt P30926+P32297); experiment: Inhibition of acetylcholine induced response in human alpha3beta4 nAChR expressed in xenopus laevis oocytes assessed as fold change at 100 uM preincubated with 3 uM acetylcholine followed by compound administration for 12 sec and measured 181 sec post washout by two-electrode voltage-clamp electrophysiology method relative to acetylcholine alone; type: cell-based; details: Oocyte
[5] = test system: Oocyte; experiment: Agonist activity at mouse muscle alpha1beta1epsilondelta nAChR expressed in xenopus laevis oocytes at 30 uM measured after 120 secs by two-electrode voltage-clamp electrophysiology method relative to control; type: cell-based; details: time 120.0 sec
[6] = molecular target: T4, Neuronal acetylcholine receptor subunit alpha-7 (Homo sapiens, UniProt P36544); experiment: Agonist activity at human alpha7 nAChR expressed as xenopus laevis oocytes assessed as increase in receptor desensitization by measuring fold change in peak current response at 30 uM incubated for 120 secs presence of PNU-120596 by two-electrode voltage-clamp electrophysiology method relative to acetylcholine; type: cell-based; details: Oocyte, filed as agonist, time 120.0 sec
[7] = molecular target: T1, Neuronal acetylcholine receptor; alpha4/beta2 (Homo sapiens); experiment: Agonist activity at human alpha4beta2 nAChR expressed in xenopus laevis oocytes at 30 uM measured after 120 secs by two-electrode voltage-clamp electrophysiology method relative to control; type: cell-based; details: Oocyte, time 120.0 sec
[8] = molecular target: T4, Neuronal acetylcholine receptor subunit alpha-7; experiment: Agonist activity at human alpha7 nAChR expressed as xenopus laevis oocytes assessed as increase in receptor desensitization by measuring fold change in maximum response (Imax) measured after 120 secs by two-electrode voltage-clamp electrophysiology method relative to acetylcholine; type: cell-based; details: Oocyte, filed as agonist, time 120.0 sec
[9] = molecular target: T3, Neuronal acetylcholine receptor; alpha3/beta4 (Homo sapiens); experiment: Agonist activity at human alpha3beta4 nAChR expressed in xenopus laevis oocytes at 100 uM measured after 120 secs by two-electrode voltage-clamp electrophysiology method relative to control; type: cell-based; details: Oocyte, time 120.0 sec
[10] = molecular target: T5, Neuronal acetylcholine receptor subunit alpha-9 (Homo sapiens, UniProt Q9UGM1); experiment: Agonist activity at human alpha9 nAChR expressed as xenopus laevis oocytes assessed as increase in receptor desensitization by measuring fold change in maximum response (Imax) measured after 120 secs by two-electrode voltage-clamp electrophysiology method relative to acetylcholine; type: cell-based; details: Oocyte, filed as agonist, time 120.0 sec
[11] = molecular target: T4, Neuronal acetylcholine receptor subunit alpha-7; experiment: Ratio for agonist activity at human alpha7 nAChR expressed as xenopus laevis oocytes assessed as increase in receptor desensitization by measuring fold change in peak current response to agonist activity at human alpha7 nAChR expressed as xenopus laevis oocytes assessed as increase in receptor desensitization by measuring fold change in peak current response in presence of PNU-120596; type: cell-based; details: Oocyte
[12] = molecular target: T4, Neuronal acetylcholine receptor subunit alpha-7; experiment: Partial agonist activity at human alpha7 nAChR expressed as xenopus laevis oocytes assessed as increase in receptor desensitization by measuring fold change in maximum response (Imax) measured after 120 secs by two-electrode voltage-clamp electrophysiology method relative to acetylcholine; type: cell-based; details: Oocyte, filed as partial agonist, time 120.0 sec
[13] = molecular target: T2, Neuronal acetylcholine receptor; alpha9/alpha10 (Homo sapiens); experiment: Agonist activity at human alpha9alpha10 nAChR expressed as xenopus laevis oocytes assessed as increase in receptor desensitization by measuring fold change in maximum response (Imax) measured after 120 secs by two-electrode voltage-clamp electrophysiology method relative to acetylcholine; type: cell-based; details: Oocyte, filed as agonist, time 120.0 sec
[14] = molecular target: T5, Neuronal acetylcholine receptor subunit alpha-9; experiment: Partial agonist activity at human alpha9 nAChR expressed as xenopus laevis oocytes assessed as increase in receptor desensitization by measuring fold change in maximum response (Imax) measured after 120 secs by two-electrode voltage-clamp electrophysiology method relative to acetylcholine; type: cell-based; details: Oocyte, filed as partial agonist, time 120.0 sec
[15] = Selectivity ratio for agonist activity at alpha7 nAChR (unknown origin) to agonist activity at alpha9 nAChR (unknown origin)
[16] = test system: THP-1; experiment: Cytotoxicity against monocytic human THP-1 cells assessed as effect on lactate dehydrogenase activity in supernatant; type: toxicity, cell-based
[17] = molecular target: Neuronal acetylcholine receptor; alpha9/alpha10 (Homo sapiens, UniProt Q9GZZ6+Q9UGM1); experiment: Agonist activity at alpha9alpha10 nAChR (unknown origin); type: protein-complex assay
[18] = test system: PBMC; experiment: Inhibition of ATP-mediated IL-1beta release in LPS primed BzATP induced human PBMC cells at 100 uM primed with LPS for 3 hrs followed by BzATP and compound addition for 30 mins by ELISA; type: functional, cell-based
[19] = molecular target: T5, Neuronal acetylcholine receptor subunit alpha-9; experiment: Agonist activity at alpha9 nAChR (unknown origin)
[20] = test system: THP-1; experiment: Induction of IL-1beta release in LPS primed monocytic human THP-1 cells at 10 uM primed with LPS for 5 hrs followed by compound addition and further incubated for 40 mins by ELISA; type: functional, cell-based
[21] = molecular target: T4, Neuronal acetylcholine receptor subunit alpha-7; experiment: Agonist activity at alpha7 nAChR (unknown origin)
[22] = test system: PBMC; experiment: Inhibition of ATP-mediated IL-1beta release in LPS primed BzATP induced human PBMC cells at 100 fM primed with LPS for 3 hrs followed by BzATP and compound addition for 30 mins by ELISA; type: functional, cell-based
[23] = cells; details: Homo sapiens, THP-1
Description: Inhibition of ATP-mediated IL-1beta release in LPS primed BzATP induced monocytic human THP-1 cells primed with LPS for 5 hrs followed by BzATP and compound addition for 40 mins by ELISA

[24] = molecular target: T2, Neuronal acetylcholine receptor; alpha9/alpha10 (Homo sapiens); experiment: Agonist activity at alpha9alpha10 nAChR (unknown origin) assessed as fold change in maximum response (Imax) relative to acetylcholine; type: protein-complex assay; details: filed as agonist
[25] = human, caco-2, 2 h
Description: Apparent permeability across apical to basolateral side in human Caco-2 cells at 5 ug/ml measured after 2 hrs by UPLC-MS/MS analysis

[26] = Metabolic stability in pooled BALB/c mouse plasma assessed as half life at 1 uM measured after 0 to 120 mins by UPLC-MS/MS analysis; type: ADME, cell-free; details: time 0-120 min

T5 sequence (Q9UGM1 whole entry): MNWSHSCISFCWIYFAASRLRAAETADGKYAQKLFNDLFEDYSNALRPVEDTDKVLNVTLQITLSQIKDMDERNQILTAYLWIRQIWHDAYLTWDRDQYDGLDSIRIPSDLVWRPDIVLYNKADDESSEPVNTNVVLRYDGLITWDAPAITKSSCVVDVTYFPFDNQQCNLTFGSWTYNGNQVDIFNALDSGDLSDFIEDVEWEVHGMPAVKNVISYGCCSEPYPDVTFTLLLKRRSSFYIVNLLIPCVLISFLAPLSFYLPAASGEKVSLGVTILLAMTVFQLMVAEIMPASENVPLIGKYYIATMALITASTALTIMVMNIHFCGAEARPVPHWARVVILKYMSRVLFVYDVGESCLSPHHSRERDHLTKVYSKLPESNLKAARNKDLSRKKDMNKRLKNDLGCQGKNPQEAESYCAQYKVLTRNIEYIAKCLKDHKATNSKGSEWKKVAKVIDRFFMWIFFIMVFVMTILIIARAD
T4 sequence (P36544 whole entry): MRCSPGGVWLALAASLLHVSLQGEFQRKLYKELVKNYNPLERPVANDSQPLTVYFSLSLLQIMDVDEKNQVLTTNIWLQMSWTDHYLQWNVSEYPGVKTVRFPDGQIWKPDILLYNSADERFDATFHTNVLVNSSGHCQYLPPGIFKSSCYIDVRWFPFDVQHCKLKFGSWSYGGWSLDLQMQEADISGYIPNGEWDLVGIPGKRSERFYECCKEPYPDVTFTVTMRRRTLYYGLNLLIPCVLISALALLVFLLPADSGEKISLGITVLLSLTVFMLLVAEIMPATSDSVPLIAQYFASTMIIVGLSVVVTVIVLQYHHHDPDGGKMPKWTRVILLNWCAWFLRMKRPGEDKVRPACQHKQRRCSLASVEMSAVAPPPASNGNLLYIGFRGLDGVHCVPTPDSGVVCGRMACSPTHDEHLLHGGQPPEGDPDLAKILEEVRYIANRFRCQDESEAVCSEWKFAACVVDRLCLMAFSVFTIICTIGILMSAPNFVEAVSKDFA
Chain of Neuronal acetylcholine receptor; alpha9/alpha10 (Q9UGM1 whole entry): as the sequence (Q9UGM1 whole entry) above
Chain of Neuronal acetylcholine receptor; alpha9/alpha10 (Q9GZZ6 whole entry): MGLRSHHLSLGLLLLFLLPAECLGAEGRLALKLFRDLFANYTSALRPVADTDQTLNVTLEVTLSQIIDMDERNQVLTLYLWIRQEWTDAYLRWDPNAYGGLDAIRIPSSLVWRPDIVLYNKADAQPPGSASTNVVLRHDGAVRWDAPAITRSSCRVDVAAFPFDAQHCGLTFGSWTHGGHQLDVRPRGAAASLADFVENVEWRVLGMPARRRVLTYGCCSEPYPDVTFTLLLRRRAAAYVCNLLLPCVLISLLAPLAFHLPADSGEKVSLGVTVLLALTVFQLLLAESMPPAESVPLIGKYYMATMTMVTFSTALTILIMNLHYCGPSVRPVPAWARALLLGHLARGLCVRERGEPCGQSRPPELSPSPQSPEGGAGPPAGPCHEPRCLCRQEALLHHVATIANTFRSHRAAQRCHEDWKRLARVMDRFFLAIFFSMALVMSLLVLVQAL

SMILES | fold change (FC) [1] | fold change (FC) [2] | fold change (FC) [4] | Activity [5] [%] | fold change (FC) [6] | Activity [7] [%] | fold change (FC) [8] | Activity [9] [%] | fold change (FC) [10] | fold change (FC) [13] | other results
CC[N+]1(CC)CCN(c2ccc(NC(=O)c3cccc(C)n3)cc2)CC1 | 0.38 | 1.07 | 0.415 | < 1 | 31.8 | < 1 | 0.14 | < 1 | 1.24 | – | fold change (FC) [3]: 0.53; Ratio [11]: 227
CC[N+]1(CC)CCN(c2ccc(-n3cccn3)cc2)CC1 | 0.59 | 0.913 | 0.736 | < 1 | 0.17 | < 1 | – | < 1 | 1.01 | – | fold change (FC) [3]: 0.59; fold change (FC) [12]: 0.088
CC[N+]1(CC)CCN(c2ccc(C(=O)Nc3cccc(C)c3)cc2)CC1 | 0.555 | 0.807 | 1.04 | < 1 | 0.17 | < 1 | – | < 1 | 1.25 | 1.12 | fold change (FC) [12]: 0.6
CC[N+]1(CC)CCN(c2ccc(C(=O)N3CCCC3)cc2)CC1 | 0.541 | 0.919 | 0.849 | < 1 | 0.01 | < 1 | 0.06 | < 1 | – | 0.56 | fold change (FC) [14]: 0.69
CC[N+]1(CC)CCN(c2ccc(C(N)=O)cc2)CC1 | – | – | – | – | 0.18 | – | – | – | 0.8 | 1.19 | Selectivity ratio [15]: 66; fold change (FC) [12]: 0.34
CC[N+]1(CC)CCN(c2ccc(C(=O)Nc3cccc(C)n3)cc2)CC1.[I-] | – | – | – | – | – | – | – | – | – | – | Activity [16]: Non-Toxic; EC50 [17]: 980 nM; inhibition [18]: inactive; EC50 [19]: 660 nM; Activity [20]: inactive; EC50 [21]: 6400 nM; inhibition [22]: Active; IC50 [23]: 14000 nM
CC[N+]1(CC)CCN(c2ccc(-n3cccc3)cc2)CC1 | 0.691 | 0.709 | 0.387 | < 1 | 0.08 | < 1 | 0.041 | < 1 | – | 0.17 | fold change (FC) [14]: 0.27
CC[N+]1(CC)CCN(c2ccc(C#N)cc2)CC1 | – | – | – | – | – | – | – | – | – | – | EC50 [17]: 2570 nM; EC50 [19]: 368 nM; fold change (FC) [24]: 0.94
CC(C)NCC(O)COc1cccc2ccccc12 (stereo unspecified) [PROPRANOLOL] | – | – | – | – | – | – | – | – | – | – | Papp [25]: 20 10^-6 cm/s
CC[N+]1(C)CCN(c2ccc(NC(C)=O)cc2)CC1 | 0.409 | 1.19 | 0.798 | < 1 | 0.15 | < 1 | – | < 1 | 0.75 | – | fold change (FC) [3]: 3.3
CCN(CC)CCOC(=O)c1ccc(N)cc1 [PROCAINE] | – | – | – | – | – | – | – | – | – | – | t1/2 [26]: < 5 min
CC[N+]1(CC)CCN(c2ccc(-c3ncco3)cc2)CC1 | 0.353 | 0.823 | 0.507 | < 1 | 0.05 | < 1 | – | < 1 | 1.29 | 0.83 | fold change (FC) [12]: 0.12
CC[N+]1(CC)CCN(c2ccc(C(=O)Nc3ccccn3)cc2)CC1 | 0.506 | 0.697 | 0.789 | < 1 | 0.12 | < 1 | 0.46 | < 1 | 1.18 | 0.94 | –
CC(=O)OCC[N+](C)(C)C [ACETYLCHOLINE] | – | – | – | – | – | – | – | – | – | – | Activity [16]: Non-Toxic; Activity [20]: inactive
CCCNC(=O)c1ccc(N2CC[N+](CC)(CC)CC2)cc1 | 0.709 | 0.946 | 0.65 | < 1 | 0.19 | < 1 | 0.38 | < 1 | 1.13 | – | fold change (FC) [3]: 0.79
Cc1cccc(NC(=O)c2ccc(N3CC[N+](C)(C)CC3)cc2)n1 | 0.709 | 0.912 | 0.838 | < 1 | 0.16 | < 1 | 0.57 | < 1 | – | 0.89 | fold change (FC) [14]: 0.51
C[C@H]1O[C@@H](O[C@H]2[C@@H](O)C[C@H](O[C@H]3[C@@H](O)C[C@H](O[C@H]4CC[C@@]5(C)[C@H](CC[C@@H]6[C@@H]5C[C@@H](O)[C@]5(C)[C@@H](C7=CC(=O)OC7)CC[C@]65O)C4)O[C@@H]3C)O[C@@H]2C)C[C@H](O)[C@@H]1O [DIGOXIN] | – | – | – | – | – | – | – | – | – | – | Papp [25]: 5.4 10^-6 cm/s
